Legend:
Design in all cases: key: 0 = no effect, 10 = maximum effect; letter = response symbol
cocklebur [1] = experiment: Test A pre-emergence; assay type: in vivo, Xanthium spp.
Description: (§1) The activity of these compounds was discovered in a number of greenhouse and field tests. The ratings are based on a numerical scale extending from 0=no effect, to 10=maximum effect. The accompanying descriptive symbols have the following meanings:
(§2) Seeds of crabgrass (Digitaria spp.), barnyardgrass (Echinochloa crusgalli), wild oats (Avena fatua), cassia (Cassia tora), morningglory (Ipomoea spp.), cocklebur (Xanthium spp.), sorghum, corn, soybean, rice, wheat and nutsedge tubers (Cyperus rotundus) were planted in a growth medium and treated preemergence with a nonphytotoxic solvent solution of the compounds of Table XII. Other batches of seeds and tubers for all of the foregoing weed and crop plants were planted at the same time as controls. The control plantings were untreated; i.e., neither any compound nor any solvent was applied. At the same time, cotton having five leaves (including cotyledonary ones), bush beans with the third trifoliate leaf expanding, crabgrass with two leaves, barnyardgrass with two leaves, wild oats with two leaves, cassia with three leaves (including cotyledonary ones), morningglory with four leaves (including the cotyledonary ones), cocklebur with four leaves (including the cotyledonary ones), sorghum with four leaves, corn with four leaves, soybean with two cotyledonary leaves, rice with three leaves, wheat with one leaf, and nutsedge with three-five leaves were sprayed with a nonphytotoxic solvent solution of the compounds of Table XII. Other groups of all the same weed and crop plants were sprayed with the same nonphytotoxic solvent so as to provide control plants. Preemergence and postemergence treated plants and controls were maintained in a greenhouse for sixteen days, then all treated plants were compared with their respective controls and rated visually for response to treatment.

morningglory [2] = experiment: Test A pre-emergence; assay type: in vivo, Ipomoea spp.
Description: as §1, §2

cassia [3] = experiment: Test A pre-emergence; assay type: in vivo, Cassia tora
Description: as §1, §2

barnyardgrass [4] = experiment: Test A pre-emergence; assay type: in vivo, Echinochloa crusgalli
Description: as §1, §2

wheat [5] = experiment: Test A pre-emergence; assay type: in vivo
Description: as §1, §2

soybean [6] = experiment: Test A pre-emergence; assay type: in vivo
Description: as §1, §2

corn [7] = experiment: Test A pre-emergence; assay type: in vivo
Description: as §1, §2

sorghum [8] = experiment: Test A pre-emergence; assay type: in vivo
Description: as §1, §2

wild oats [9] = experiment: Test A pre-emergence; assay type: in vivo, Avena fatua
Description: as §1, §2

wheat [10] = experiment: Test A post-emergence; assay type: in vivo; conditions: 0.4 kg/ha
Description: as §1, §2

soybean [11] = experiment: Test A post-emergence; assay type: in vivo; conditions: 0.4 kg/ha
Description: as §1, §2

sorghum [12] = experiment: Test A post-emergence; assay type: in vivo; conditions: 0.4 kg/ha
Description: as §1, §2

bush bean = experiment: Test A post-emergence; assay type: in vivo, bush beans; conditions: 0.4 kg/ha
morningglory [13] = experiment: Test A post-emergence; assay type: in vivo, Ipomoea spp.; conditions: 0.4 kg/ha
Description: as §1, §2

wild oats [14] = experiment: Test A post-emergence; assay type: in vivo, Avena fatua; conditions: 0.4 kg/ha
Description: as §1, §2

barnyardgrass [15] = experiment: Test A post-emergence; assay type: in vivo, Echinochloa crusgalli; conditions: 0.4 kg/ha
Description: as §1, §2

crabgrass = experiment: Test A post-emergence; assay type: in vivo, Digitaria spp.; conditions: 0.4 kg/ha
Description: as §1, §2

cocklebur [16] = experiment: Test A post-emergence; assay type: in vivo, Xanthium spp.; conditions: 0.4 kg/ha
Description: as §1, §2

nutsedge = experiment: Test A post-emergence; assay type: in vivo, Cyperus rotundus; conditions: 0.4 kg/ha
Description: as §1, §2

cassia [17] = experiment: Test A post-emergence; assay type: in vivo, Cassia tora; conditions: 0.4 kg/ha
Description: as §1, §2

corn [18] = experiment: Test A post-emergence; assay type: in vivo; conditions: 0.4 kg/ha
Description: as §1, §2

Compound | response rating (cocklebur [1]; 0.4 kg/ha) [G] | response rating (morningglory [2]; 0.4 kg/ha) | response rating (cassia [3]; 0.4 kg/ha) | response rating (wheat [5]; 0.4 kg/ha) | response rating (soybean [6]; 0.4 kg/ha) [H] | response rating (corn [7]; 0.4 kg/ha) | response rating (sorghum [8]; 0.4 kg/ha) [H] | also measured
COc1cc(C)nc(NC(=O)NS(=O)(=O)c2ccccc2C(=O)OCCCl)n1 [drawing 488] | 9 | 9C | 9C | 9H | 9 | 10H | 10 | response rating (barnyardgrass [4]; 0.4 kg/ha): 10H
COc1cc(C)nc(NC(=O)NS(=O)(=O)c2ccccc2C(=O)SC2CCCCC2)n1 [drawing 543] | 9 | 9H | 9G | 9H | 9 | 9G | 9 | response rating (barnyardgrass [4]; 0.4 kg/ha): 9H
COC(=O)c1ccccc1S(=O)(=O)NC(=O)Nc1ncccn1 [drawing 485] | – | – | – | – | – | – | – | response rating (cocklebur [1]; 2 kg/ha): 9G; response rating (wild oats [9]; 2 kg/ha): 8G; response rating (cassia [3]; 2 kg/ha): 9G; response rating (wheat [5]; 2 kg/ha): 8G; response rating (corn [7]; 2 kg/ha): 9G; response rating (sorghum [8]; 2 kg/ha): 9G
COc1cc(C)nc(NC(=O)NS(=O)(=O)c2ccccc2C(=O)OC2CCOC2)n1 (stereo not shown) [drawing 446] | – | – | – | – | – | – | – | response rating (wheat [10]): 7C; response rating (soybean [11]): 9C; response rating (sorghum [12]): 9C; response rating (bush bean): 9C; response rating (morningglory [13]): 9C; response rating (wild oats [14]): 7G; response rating (barnyardgrass [15]): 9C
COc1cc(C)nc(NC(=O)NS(=O)(=O)c2ccccc2C(=O)SCc2ccccc2)n1 [drawing 542] | 8 | 9G | 9G | 9H | 9 | 9G | 9 | –
COCCc1nc(NC(=O)NS(=O)(=O)c2ccccc2C(=O)OC)nc(OC)n1 [drawing 541] | 9 | 9G | – | 6G | 9 | 10H | 9 | –
COc1nc(C)nc(NC(=O)NS(=O)(=O)c2ccccc2C(=O)OC2CCCC2)n1 [drawing 445] | – | – | – | – | – | – | – | response rating (crabgrass): 1C; response rating (wheat [10]): 1C; response rating (soybean [11]): 9C; response rating (sorghum [12]): 8G; response rating (cocklebur [16]): 9C; response rating (nutsedge): 7G; response rating (bush bean): 8C; response rating (morningglory [13]): 10C; response rating (wild oats [14]): 1C
COc1nc(C)nc(NC(=O)NS(=O)(=O)c2ccccc2C(=O)OC(C)Cc2ccccc2)n1 (stereo not shown) [drawing 524] | 9 | 9G | – | 9H | 9 | 9H | 9 | response rating (wild oats [9]; 0.4 kg/ha): 9H; response rating (barnyardgrass [4]; 0.4 kg/ha): 9H
COc1cc(C)nc(NC(=O)NS(=O)(=O)c2ccccc2C(=O)NC(C)C)n1 [drawing 463] | – | – | – | – | – | – | – | response rating (crabgrass): 10C; response rating (soybean [11]): 9C; response rating (sorghum [12]): 9C; response rating (cassia [17]): 9C; response rating (cocklebur [16]): 9C; response rating (nutsedge): 9C; response rating (morningglory [13]): 10C; response rating (wild oats [14]): 9C; response rating (barnyardgrass [15]): 9C
COC(=O)c1ccccc1S(=O)(=O)NC(=O)Nc1nc(OC)cc(OC(C)C(=O)OC)n1 (stereo not shown) [drawing 535] | – | – | – | – | 9 | 10H | 10 | –
Cc1cc(C)nc(NC(=O)NS(=O)(=O)c2ccccc2C(=O)O)n1 [drawing 510] | – | – | – | – | – | – | – | response rating (corn [7]; 2 kg/ha): 3G
COc1cc(C)nc(NC(=O)NS(=O)(=O)c2ccccc2C(=O)OCCOc2ccccc2)n1 [drawing 528] | 9 | 9C | – | 9H | 9 | 9G | – | –
CCC(C)OC(=O)c1ccccc1S(=O)(=O)NC(=O)Nc1nc(OC)cc(OC)n1 (stereo not shown) [drawing 423] | – | – | – | – | – | – | – | response rating (crabgrass): 2A; response rating (wheat [10]): 1C; response rating (soybean [11]): 9C; response rating (corn [18]): 9H; response rating (nutsedge): 7G; response rating (morningglory [13]): 9C; response rating (wild oats [14]): 2C; response rating (barnyardgrass [15]): 9C
CCOCCSc1cc(C)nc(NC(=O)NS(=O)(=O)c2ccccc2C(=O)OC)n1 [drawing 536] | – | 9G | – | – | 9 | 9G | 9 | –
COc1cc(C)nc(NC(=O)NS(=O)(=O)c2ccccc2C(=O)OC(C)CCl)n1 (stereo not shown) [drawing 545] | 9 | 9G | 9G | 9H | 9 | 9H | – | –
COc1nc(C)nc(NC(=O)NS(=O)(=O)c2ccccc2C(=O)OC(C)C)n1 [drawing 492] | 9 | 9G | – | 5G | 9 | 9G | – | response rating (wild oats [9]; 0.4 kg/ha): 9G
COC(=O)c1ccccc1S(=O)(=O)NC(=O)Nc1nc(C)nc(N(C)C)n1 [drawing 539] | 9 | 9G | 8G | 9H | 9 | 9G | 9 | –
COCCCOc1cc(C)nc(NC(=O)NS(=O)(=O)c2ccccc2C(=O)OC)n1 [drawing 537] | 9 | – | 8G | 9H | 9 | 9H | 9 | –
COc1cc(C)nc(NC(=O)NS(=O)(=O)c2ccccc2C(=O)N(C)C)n1 [drawing 532] | 9 | 9G | 9G | 9H | 9 | 9H | 9 | response rating (barnyardgrass [4]; 0.4 kg/ha): 9H
COC(=O)c1ccccc1S(=O)(=O)NC(=O)N(C)c1nc(C)cc(C)n1 [drawing 419] | – | – | – | – | – | – | – | response rating (crabgrass): 7G; response rating (soybean [11]): 3C; response rating (cassia [17]): 2C; response rating (nutsedge): 7G; response rating (wild oats [14]): 6C; response rating (barnyardgrass [15]): 9C
CCCC(OC(=O)c1ccccc1S(=O)(=O)NC(=O)Nc1nc(C)nc(OC)n1)C(C)C (stereo not shown) [drawing 458] | – | – | – | – | – | – | – | response rating (crabgrass): 3C; response rating (soybean [11]): 9C; response rating (corn [18]): 9C; response rating (cassia [17]): 9C; response rating (cocklebur [16]): 10C; response rating (bush bean): 9C; response rating (morningglory [13]): 10C; response rating (barnyardgrass [15]): 9C
COC(=O)c1ccccc1S(=O)(=O)NC(=O)Nc1nnc(C)c(C)n1 [drawing 484] | – | – | – | – | – | – | – | response rating (cocklebur [1]; 2 kg/ha): 9G; response rating (morningglory [2]; 2 kg/ha): 9C; response rating (wild oats [9]; 2 kg/ha): 9H; response rating (cassia [3]; 2 kg/ha): 9C; response rating (barnyardgrass [4]; 2 kg/ha): 9H; response rating (wheat [5]; 2 kg/ha): 9H; response rating (soybean [6]; 2 kg/ha): 9H; response rating (corn [7]; 2 kg/ha): 9G; response rating (sorghum [8]; 2 kg/ha): 9H
